Experimental data published in patent US20090233940A1, “Insecticide Compositions” (priority 2008, published 2009).

How the values were obtained:
Cycad Asian Scale = assay: Killing of scale insects / exterminating Cycad Asian Scale populations (general statements); settings: in vivo
[1] = can be used outdoors as well as indoors; cited from earlier work

SMILES	usefulness in exterminating Cycad Asian Scale populations (Cycad Asian Scale)	photostability [1]
CCOC(=O)CC(SP(=S)(OC)OC)C(=O)OCC (centres unmarked) [Malathion, malathion]	particularly useful	
CC(COc1ccc(Oc2ccccc2)cc1)Oc1ccccn1 (centres unmarked) [Nylar]		photostable
